Assay results as given in patent US11660326B2, “Bacterial-binding peptides for treatment of infectious diseases and related inflammatory processes” (priority 2018, dated 2023).

What was measured:
[1] = tested on: mice undergoing CLP-induced septic shock; experiment: Mouse survival following CLP-induced septic shock; format: in vivo, C57BL/6J mice; details: single 6 mg/kg i.v. at +1 h post CLP; FIG. 7
Protocol: FIG. 7. Comparative therapeutic effects of i.v. infused CD6-derived peptides on mouse survival following Cecal Ligation and Puncture (CLP)-induced sepsis. (A, B) C57BL/6J mice were i.v. infused with saline (n=25) or single 6 mg/kg doses of unlabeled CD6- (PD1, n=8; PD2, n=16; PD3, n=15; Pcons, n=12) or DMBT1 (pbs1, n=13) derived peptides at +1 h post CLP induction. A sham group (n=3) was included. In all cases average percent survival was analyzed over time for each group and compared with the saline-treated group using the long-rank t-test (*, P<0.05; **, P<0.01; ***, P<0.001).
FIG. 8. Dose-, time- and via-dependent effects of CD6.PD3 infusion on mouse survival following CLP-induced sepsis. (A) C57BL/6 mice were i.v. infused at +1 h post CLP with saline (n=26) or single increasing doses (3 mg/kg, n=13; 6 mg/kg, n=15; and 12 mg/kg, n=8) of CD6.PD3 peptide. (B) C57BL/6 mice were i.v. infused with saline (n=4) or 6 mg/kg CD6.PD3 at different times post CLP (+1 h, n=5; +3 h, n=5; +6 h, n=6). (C) C57BL/6J mice were i.v. (n=11) or i.p. (n=9) infused with 6 mg/kg CD6.PD3 peptide or saline (n=9) at +1 h post CLP. In all cases, average percent of survival was analyzed over time and compared with the saline-treated group using a log-rank t-test (n.s., not significant; *, P<0.05. **, P<0.01; ***, P<0.001).
FIG. 10. Additive effects of combined administration of CD6.PD3 plus Imipenem/Cilastatin on mouse survival following CLP-induced sepsis. C57BL/6J mice were therapeutically infused at +1 h post CLP with saline (n=36), CD6.PD3 (6 mg/kg i.v.; n=25), Imipenem/Cilastatin (I/C, 50 mg/kg/12 h i.p.; n=9) or a combination of the two later (I/C+PD3, n=11). In all cases average percent survival was analyzed over time for each group and compared to the I/C plus CD6.PD3 group using the long-rank t-test (**, P<0.02; ***, P<0.002).
Animal procedures were approved by the Animal Experimentation Ethical Committee, University of Barcelona. High-grade mortality (≥90% mortality within the first 48-72 h) CLP-induced septic shock was induced in 8-10 week old C57BL/6J male mice (20-25 g; Charles River) as previously reported (Martinez-Florensa M, et al., 2017, Protective Effects of Human and Mouse Soluble Scavenger-Like CD6 Lymphocyte Receptor in a Lethal Model of Polymicrobial Sepsis, Antimicrob Agents Chemother 61:e01391-16).
Survival assays were analyzed by a Log-Rank χ^2 test using GraphPad Prism software. The significance of differences between experimental groups was determined by 2-tailed paired T test with 95% of confidence intervals (CI). P values were considered significant when P<0.05. Statistical analysis (mean±SEM) was performed using a 2-tailed Mann-Whitney test, with 95% of Cl.

[2] = Solid phase binding assay (ELISA) of biotin-labeled peptides to immobilized LPS; design: species or system E. coli; details: biotin-labeled peptide 5-20 μg/mL; LPS 5 μg/mL coated
Protocol: (§1) FIG. 3. Binding of biotin-labeled CD6-derived peptides to immobilized PAMPs from Gram- and Gram+ origin. Increasing concentrations (5-20 μg/mL) of biotin-labeled CD6- (PD1, PD2, PD3 and cons), DMBT1- (pbs1), and CD5- (PD1) derived peptides were added to 96-well ELISA plates sensitized with E. coli 0111:B4 LPS (A) or S. aureus LTA (B) (5 μg/mL each in PBS). Following overnight incubation at 4° C. bound peptides or proteins were developed by addition of horseradish peroxidase (HRP)-labeled streptavidin and 3,3′,5,5′-tetramethylbenzidine (TMB) substrate and further readings at OD 405-620 nm. Results are expressed as mean±SD of duplicates from one representative experiment of three performed. Statistical analysis was performed by two-way ANOVA (*,P<0.05; **, P<0.01; ***, P<0.001).
(§2) Solid Phase Binding Assays. 96-well microtiter plates (Nunc, Roskilde, Denmark) were coated overnight at 4° C. with 5 μg/mL of purified LPS (E. coli 0111:B4, Sigma L2630) or LTA (S. aureus, Sigma L2515) in PBS, and then incubated for 2 h at room temperature in blocking solution (20 mM Tris-HCl pH 7.4 plus 0.05% Tween 20 and 1% BSA). Biotin-labeled peptides/proteins (2.5-20 μg/mL) were added and incubated overnight at 4° C. in blocking solution. After extensive washing, bound peptides/proteins were detected by the addition of horseradish peroxidase (HRP)-labeled streptavidin (1:5,000 dilution; DAKO) for 1 h at room temperature. Color was developed by adding 3,3′,5,5′-tetramethylbenzidine (TMB) liquid substrate (Sigma), and optical density read at 405-620 nm.

[3] = Solid phase binding assay (ELISA) of biotin-labeled peptides to immobilized LTA; design: species or system S. aureus; details: biotin-labeled peptide 5-20 μg/mL; LTA 5 μg/mL coated
Protocol: as §1, §2

[4] = Dynamic light scattering (DLS), hydrodynamic size of peptides in solution; format: physicochemical; details: 10 μg/mL in PBS, 25° C.
Protocol: FIG. 5. Analysis of the hydrodynamic size of CD6-derived peptides in solution. The dynamic light scattering (DLS) analysis of the hydrodynamic diameter of CD6 (PD1, PD2, PD3, and Pcons) and DMBT-1/SAG (pbs1) derived peptides (10 μg/mL) in PBS is shown. The y axis represents the relative intensity of the scattered light; the x axis denotes the hydrodynamic diameter of the particles present in the solution. One representative experiment of four performed is shown (left). The numeric values obtained for each peptide are also shown (right).
The hydrodynamic diameters of peptides (10 μg/mL in PBS) were measured at 25° C. in a Zetasizer Nano S from Malvern Instruments (Worcestershire, UK) equipped with a 633 nm HeNe laser, as described (Saenz A, et al., 2010, Fluidizing effects of C-reactive protein on lung surfactant membranes: protective role of surfactant protein A, FASEB J 24:3662-73). Four scans were recorded for each sample, and samples were analyzed in triplicate.

[5] = depending on the G− strain used; read-out: Kd of the LPS/Polymixin B interaction; cited from earlier work
[6] = tested on: mouse splenocytes exposed to LPS; experiment: LPS-induced cytokine release by mouse splenocytes; format: cell-based, C57BL/6 mice; details: LPS 0.5 μg/mL, 48 h, peptide 0.5, 5 and 20 μg/mL
Protocol: FIG. 6. Effect of CD6-derived peptides on in vitro LIPS-induced cytokine release by mouse splenocytes. Total spleen cell suspensions (2×10^5) from C57BL/6 mice (n=7) were stimulated in triplicate for 48 h with LPS (0.5 μg/mL), in the presence or absence of increasing concentrations (0.5, 5, and 20 μg/mL) of CD6-derived peptides (PD1, PD2, PD3, and Pcons). Cytokine levels in culture supernatants were determined by ELISA and results expressed in pg/mL as mean±SD of triplicates. Viability was >75% at 48 h in all experimental conditions. Statistical analysis was performed using a 2-tailed Mann-Whitney test, with confidence intervals of 95% (*, P<0.05; **, P<0.01; ***, P<0.001).
Spleens from 6-8 week old C57BL/6 mice (Charles River) were disaggregated by filtering through a cell strainer and, after erythrocyte lysis, cells were resuspended in RPMI 1640 with L-glutamine (Lonza) plus 10% fetal calf serum (BioWest), 100 U/mL penicillin, 100 μg/mL streptomycin and 50 μM 2-(3 Mercaptoethanol (Merck). Cells (2×10^5) were stimulated for 48 h (at 37° C. in a humidified atmosphere with 5% CO2) in U-bottomed 96-well plates (Biofil) containing LPS (0.5 μg/mL; E. coli O111:B4), in the presence or absence of increasing peptides (0.5-20 μg/mL). Culture supernatants were harvested and mouse cytokines measured by ELISA following manufacturer's instructions (BD Biosciences OptEIA sets).

[7] = tested on: mouse models of septic shock; details: cited from earlier work
[8] = cited from earlier work
[9] = Endotoxin adsorption on peptide/protein-coated Eupergit beads (LAL assay); details: 50 UI/mL LPS, 0-150 min, vs HSA- and rshCD5-coated controls
Protocol: FIG. 11. Endotoxin adsorption assays on immobilized CD6-derived peptides and proteins. Eupergit® beads coated with different CD6-derived peptides (PD2, PD3, and Pcons) (A) or proteins (rshCD5 and rshCD6) (B) were incubated for different periods of time (0, 30, 90 and 150 min) with a 50 UI/mL endotoxin solution. Limulus amoebocyte lysate activating activity (LAL activity) of supernatants was then monitored along time and the OD 405-620 nm represented. Beads coated with Human Serum Albumin (HSA) were used as negative controls. Shown are triplicates of a representative experiment from two independent performed. Statistical analysis was done by using the 2-tailed paired T test with 95% confidence interval (***, P<0.001).
Proteins or peptides (2.5 mg each) were immobilized via NH2 groups on macroporous acrylic EUPERGIT© beads (0.2 g; Röhm-Pharma GmbH, Germany) following a previously described protocol (Zimmermann M, et al., 1999, Endotoxin adsorbent based on immobilized human serum albumin. Clin Chem Lab Med 37:373-379). Peptide or protein-coated Eupergit® beads are obtained by incubation with stirring of the polymeric beads at room temperature with a solution of the peptides of the invention in sodium phosphate buffer 100 mM pH 8 for 24 hours. After incubation, the beads were washed 3 times with 3 M sodium chloride pH 7.0, 30 mM sodium phosphate buffer pH 4.0 and 30 mM sodium phosphate buffer pH 8.0. Finally, 154 mM sodium chloride solution pH 7.0 was added to the peptide or protein-coated beads.
LPS detection was performed by using the turbidimetric-kinetic Limulus Amebocyte Lysate (LAL) kit-QCL (50-650U, Lonza) following manufacturer's instructions. Protein/peptide-coated EUPERGIT® beads were incubated 1:1 (v:v) with the provided endotoxin solution (50 UI/mL) for different periods of time (0-150 min) at room temperature following manufacturer's instructions.

[10] = tested on: pro-inflammatory cytokine (IL-1β, IL-6, TNF-α) release; details: cited from earlier work

Row | Molecule | survival [1] | binding to immobilized LPS (ELISA) [2] | binding to immobilized LTA (ELISA) [3] | hydrodynamic size, first (or single) peak [4] | hydrodynamic size, second peak [4] | also measured
1 | GRVEVLYRGSW (DMBT-1.pbs1) [DMBT1.pbs1, reference compound] | 23.07% | dose-dependent binding | dose-dependent binding | 169±5 nm | 617±4 nm | 
2 | Polymixin B |  |  |  |  |  | Kd [5]: 100 to 900 nM
3 | GQLEVYLKDGW (CD5.PD1) |  | no significant binding | no significant binding |  |  | 
4 | GRVEVLFRGSW (CD6 Pcon) [CD6.cons, reference compound] | 25% | dose-dependent binding | dose-dependent binding | 1636±6 nm | 5493±7 nm | IL-1β release [6]: dose-dependent inhibitory effects; IL-6 release [6]: dose-dependent inhibitory effects; IL-10 release [6]: not
5 | rshCD6: recombinant soluble form of human CD6, SEQ ID NO.: 10 (protein, rshCD6) DQLNTSSAESELWEPGERLPVRLTNGSSSCSGTVEVRLEASWEPACGALWDSRAAEAVCRALGCGGAEAASQLAPPTPELPPPPAAGNTSVAANATLAGAPALLCSGAEWRLCEVVEHACRSDGRRARVTCAENRALRLVDGGGACAGRVEMLEHGEWGSVCDDTWDLEDAHVVCRQLGCGWAVQALPGLHFTPGRGPIHRDQVNCSGAEAYLWDCPGLPGQHYCGHKEDAGAVCSEHQSWRLTGGADRCEGQVEVHFRGVWNTVCDSEWYPSEAKVLCQSLGCGTAVERPKGLPHSLSGRMYYSCNGEELTLSNCSWRFNNSNLCSQSLAARVLCSASRSLHNLSTPEVPASVQTVTIESSVTVKIENKESR |  |  |  |  |  | lethal effects caused by LPS-induced septic shock ([7]; i.p. administration, mice (EP 2143436)): counteracts the lethal effects; serum levels of pro-inflammatory cytokines (IL-1β, IL-6 and TNF-α) ([7]; prophylactic infusion): significantly reduces; mortality ([7]; prophylactic infusion, endotoxin, whole bacteria and peritonitis models): significantly reduces mortality; Kd affinities for bacterial PAMPs (LPS, LTA or PGN) [8]: in the nM range; endotoxin levels (LAL assay) [9]: reduced endotoxin levels; pro-inflammatory cytokine (IL-1β, IL-6, TNF-α) release triggered by LPS or LTA/PGN [10]: down-modulates
